# Measured values published in patent US20210283139A1, “BIFUNCTIONAL MOLECULES FOR TARGETING UCHL5” (AMPHISTA THERAPEUTICS LTD, priority 2018, published 2021).
# Experiments:
# Type in all cases: cell-based
# [1] = molecular target: T1, Brd4 (L) (Homo sapiens, UniProt O60885); assay: Concentration-dependent BET degradation, immunoblot, HeLa cells; details: 6 h treatment, 1 nM-10 μM; for Dmax: read-out: Dmax (%) maximum degradation observed
# T1 construct: endogenous in cells; host or cells: HEK293, HeLa
# Method: (§1) Cell culture. HeLa (CCL-2) and HEK293 (CRL-1573) cells were purchased from ATCC and cultured in DMEM medium (Gibco) supplemented with 10% FBS, 100 μg/mL penicillin/streptomycin and L-glutamine. Cells were grown at 37° C. and 5% CO2, and were kept no longer than 30 passages. All cell lines were routinely tested for mycoplasma contamination using MycoAlert kit from Lonza.
# (§2) Immunoblotting. proteins were separated by SDS-PAGE on NuPage 4-12% Bis-Tris gels, followed by transfer to Amersham Protran 0.45 NC nitrocellulose membrane (GE Healthcare) using wet transfer. Membranes were blocked using 5% w/v milk in Tris-buffered saline (TBS) with 0.1% Tween-20. Blots were probed (overnight at 4° C.) using anti-Brd2 (Abcam ab139690, 1:2,000 dilution), anti-Brd3 (Abcam ab50818, 1:500 dilution), and anti-Brd4 (Abcam ab128874, 1:1,000 dilution) primary antibodies, as appropriate. The next day, blots were washed with TBST and incubated (1 hr at RT) with anti-Tubulin hFAB-rhodamine (BioRad, 12004166) primary antibody, and either anti-rabbit IRDye 800CW (Licor 1:10,000 dilution) or anti-mouse IRDye 800CW (Licor 1:10,000 dilution) secondary antibody. Blots were developed using a Bio-Rad ChemiDoc MP Imaging System, and band quantification was performed using Image Studio software (LiCor). Band intensities were normalized to the tubulin loading control and reported as % of the average 0.1% DMSO vehicle intensity. Degradation data was plotted and analysed using Prism (Graphpad, version 8).
# (§3) HeLa (5×10^5) and HEK293 (1×10^6) cells were seeded in standard 6-well plates (2 mL medium) overnight before treatment with compounds at the desired concentration (1 nM-10 μM), with a final DMSO concentration of 0.1% v/v. After 6 h treatment time, cells were washed with DPBS (Gibco) and lysed using 85 μL RIPA buffer (Sigma-Aldrich) supplemented with cOmplete Mini EDTA-free protease inhibitor cocktail (Roche) and benzonase. Lysates were clarified by centrifugation (20,000g, 10 min, 4° C.) and the total protein content of the supernatant was quantified using a Bradford colorimetric assay. Samples were prepared using equal amounts of total protein and LDS sample buffer (Invitrogen.
# (§4) Representative blots in FIG. 3 show depletion of Brd2, Brd3 and Brd4 protein levels following treatment with increasing concentrations of representative compounds. Band intensities were normalized to the β-tubulin loading control and reported as % of the average 0.1% DMSO vehicle intensity, with each point representing mean±SEM of two independent experiments (n=2). Degradation data was plotted and analysed using Prism (Graphpad, version 8)
# [2] = molecular target: T2, Brd4 (S) (Homo sapiens, UniProt O60885); assay: as above; details: 6 h treatment, 1 nM-10 μM; for Dmax: read-out: Dmax (%) maximum degradation observed
# T2 construct: endogenous in cells; host or cells: HEK293, HeLa
# Method: as §1, §2, §3, §4
# [3] = molecular target: T1, Brd4 (L); assay: Time-dependent BET degradation, immunoblot, HeLa cells; parameters: dose or concentration left out as unconfirmed; details: timecourse 0-8 h
# Method: as §1, §2
# as §3, with “(3×10^5)” for “(5×10^5)”, “(0.5×10^6)” for “(1×10^6)”, “1 μM concentration,” for “the desired concentration (1 nM-10 μM),”, “incubation for the desired time (0-8 h),” for “6 h treatment time,”, “(20,000 g,” for “(20,000g,”, “(Invitrogen).” for “(Invitrogen.”
# as §4, with “FIG. 4” for “FIG. 3”, “following 1 μM” for “following”, “treatment at various time points” for “treatment”, “with” for “with increasing concentrations of”, “version 8).” for “version 8)”
# (§5) T½ (h) is the time required to deplete 50% of the protein relative to DMSO
# [4] = molecular target: T2, Brd4 (S); assay: as above; parameters: dose or concentration left out as unconfirmed; details: timecourse 0-8 h
# Method: as §1, §2
# as §3, with “(3×10^5)” for “(5×10^5)”, “(0.5×10^6)” for “(1×10^6)”, “1 μM concentration,” for “the desired concentration (1 nM-10 μM),”, “incubation for the desired time (0-8 h),” for “6 h treatment time,”, “(20,000 g,” for “(20,000g,”, “(Invitrogen).” for “(Invitrogen.”
# as §4, with “FIG. 4” for “FIG. 3”, “following 1 μM” for “following”, “treatment at various time points” for “treatment”, “with” for “with increasing concentrations of”, “version 8).” for “version 8)”
# as §5
# [5] = molecular target: T3, Brd3 (Homo sapiens, UniProt Q15059); assay: Time-dependent BET degradation, immunoblot, HEK293 cells; parameters: endogenous in cells; host or cells: HEK293; details: HEK293, Brd3, 1 μM, timecourse 0-8 h
# T3 sequence (Q15059 whole entry): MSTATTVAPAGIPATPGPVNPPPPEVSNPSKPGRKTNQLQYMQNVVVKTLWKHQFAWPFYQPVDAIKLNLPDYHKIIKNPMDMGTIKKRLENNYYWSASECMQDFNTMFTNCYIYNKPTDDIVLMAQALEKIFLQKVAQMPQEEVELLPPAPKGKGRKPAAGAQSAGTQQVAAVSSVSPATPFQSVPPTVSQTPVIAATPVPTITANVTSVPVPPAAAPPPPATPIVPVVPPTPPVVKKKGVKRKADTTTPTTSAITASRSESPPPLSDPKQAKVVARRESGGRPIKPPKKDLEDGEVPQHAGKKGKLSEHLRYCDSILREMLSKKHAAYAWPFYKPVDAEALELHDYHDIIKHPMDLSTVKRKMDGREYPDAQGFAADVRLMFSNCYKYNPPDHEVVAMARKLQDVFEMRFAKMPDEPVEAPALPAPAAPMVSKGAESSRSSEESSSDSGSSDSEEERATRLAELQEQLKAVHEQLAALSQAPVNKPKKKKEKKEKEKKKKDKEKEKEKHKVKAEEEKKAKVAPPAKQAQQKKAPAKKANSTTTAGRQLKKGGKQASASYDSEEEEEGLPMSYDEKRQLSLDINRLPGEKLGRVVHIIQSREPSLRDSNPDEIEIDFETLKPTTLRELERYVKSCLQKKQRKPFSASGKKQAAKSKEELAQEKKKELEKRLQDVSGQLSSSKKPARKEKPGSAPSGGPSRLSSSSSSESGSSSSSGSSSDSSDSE
# Method: as §1, §2
# as §3, with “(3×10^5)” for “(5×10^5)”, “(0.5×10^6)” for “(1×10^6)”, “1 μM concentration,” for “the desired concentration (1 nM-10 μM),”, “incubation for the desired time (0-8 h),” for “6 h treatment time,”, “(20,000 g,” for “(20,000g,”, “(Invitrogen).” for “(Invitrogen.”
# as §4, with “FIG. 4” for “FIG. 3”, “following 1 μM” for “following”, “treatment at various time points” for “treatment”, “with” for “with increasing concentrations of”, “version 8).” for “version 8)”
# as §5
# [6] = molecular target: T4, Brd2 (Homo sapiens, UniProt P25440); assay: as above; parameters: endogenous in cells; host or cells: HEK293; details: HEK293, Brd2, 1 μM, timecourse 0-8 h
# T4 sequence (P25440 whole entry): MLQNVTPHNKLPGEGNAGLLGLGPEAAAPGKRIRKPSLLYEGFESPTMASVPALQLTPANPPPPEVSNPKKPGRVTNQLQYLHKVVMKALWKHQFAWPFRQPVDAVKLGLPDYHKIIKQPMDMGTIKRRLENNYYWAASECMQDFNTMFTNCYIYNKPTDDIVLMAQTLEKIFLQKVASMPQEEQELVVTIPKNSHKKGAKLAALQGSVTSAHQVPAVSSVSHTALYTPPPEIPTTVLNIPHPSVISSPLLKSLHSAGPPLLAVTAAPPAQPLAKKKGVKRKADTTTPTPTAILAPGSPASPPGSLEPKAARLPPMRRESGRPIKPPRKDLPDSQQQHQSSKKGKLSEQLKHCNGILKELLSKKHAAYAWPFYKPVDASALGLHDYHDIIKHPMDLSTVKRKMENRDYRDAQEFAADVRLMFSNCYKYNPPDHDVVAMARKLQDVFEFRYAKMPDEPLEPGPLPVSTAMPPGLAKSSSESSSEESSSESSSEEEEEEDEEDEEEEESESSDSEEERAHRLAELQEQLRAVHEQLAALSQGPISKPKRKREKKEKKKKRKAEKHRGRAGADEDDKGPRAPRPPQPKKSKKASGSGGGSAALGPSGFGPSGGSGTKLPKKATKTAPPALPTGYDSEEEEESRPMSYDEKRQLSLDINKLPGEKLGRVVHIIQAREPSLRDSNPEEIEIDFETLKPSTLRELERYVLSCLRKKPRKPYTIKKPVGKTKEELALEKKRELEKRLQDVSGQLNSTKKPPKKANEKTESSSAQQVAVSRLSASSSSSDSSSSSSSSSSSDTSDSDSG
# Method: as §1, §2
# as §3, with “(3×10^5)” for “(5×10^5)”, “(0.5×10^6)” for “(1×10^6)”, “1 μM concentration,” for “the desired concentration (1 nM-10 μM),”, “incubation for the desired time (0-8 h),” for “6 h treatment time,”, “(20,000 g,” for “(20,000g,”, “(Invitrogen).” for “(Invitrogen.”
# as §4, with “FIG. 4” for “FIG. 3”, “following 1 μM” for “following”, “treatment at various time points” for “treatment”, “with” for “with increasing concentrations of”, “version 8).” for “version 8)”
# as §5
# [7] = molecular target: T1, Brd4 (L); assay: Concentration-dependent BET degradation, immunoblot, HEK293 cells; details: 6 h treatment, 1 nM-10 μM; for Dmax: read-out: Dmax (%) maximum degradation observed
# Method: as §1, §2, §3, §4
# [8] = molecular target: T2, Brd4 (S); assay: as above; details: 6 h treatment, 1 nM-10 μM; for Dmax: read-out: Dmax (%) maximum degradation observed
# Method: as §1, §2, §3, §4
# [9] = molecular target: T3, Brd3; assay: as above; parameters: endogenous in cells; host or cells: HEK293; details: HEK293, Brd3, 6 h treatment, 1 nM-10 μM; for Dmax: read-out: Dmax (%) maximum degradation observed
# Method: as §1, §2, §3, §4
# [10] = molecular target: T4, Brd2; assay: as above; parameters: endogenous in cells; host or cells: HEK293; details: HEK293, Brd2, 6 h treatment, 1 nM-10 μM; for Dmax: read-out: Dmax (%) maximum degradation observed
# Method: as §1, §2, §3, §4
# [11] = molecular target: T3, Brd3; assay: Time-dependent BET degradation, immunoblot, HeLa cells; parameters: endogenous in cells; host or cells: HeLa; details: Brd3, 1 μM, timecourse 0-8 h
# Method: as §1, §2
# as §3, with “(3×10^5)” for “(5×10^5)”, “(0.5×10^6)” for “(1×10^6)”, “1 μM concentration,” for “the desired concentration (1 nM-10 μM),”, “incubation for the desired time (0-8 h),” for “6 h treatment time,”, “(20,000 g,” for “(20,000g,”, “(Invitrogen).” for “(Invitrogen.”
# as §4, with “FIG. 4” for “FIG. 3”, “following 1 μM” for “following”, “treatment at various time points” for “treatment”, “with” for “with increasing concentrations of”, “version 8).” for “version 8)”
# as §5
# [12] = molecular target: T4, Brd2; assay: as above; parameters: endogenous in cells; host or cells: HeLa; details: Brd2, 1 μM, timecourse 0-8 h
# Method: as §1, §2
# as §3, with “(3×10^5)” for “(5×10^5)”, “(0.5×10^6)” for “(1×10^6)”, “1 μM concentration,” for “the desired concentration (1 nM-10 μM),”, “incubation for the desired time (0-8 h),” for “6 h treatment time,”, “(20,000 g,” for “(20,000g,”, “(Invitrogen).” for “(Invitrogen.”
# as §4, with “FIG. 4” for “FIG. 3”, “following 1 μM” for “following”, “treatment at various time points” for “treatment”, “with” for “with increasing concentrations of”, “version 8).” for “version 8)”
# as §5
# [13] = molecular target: T3, Brd3; assay: Concentration-dependent BET degradation, immunoblot, HeLa cells; parameters: endogenous in cells; host or cells: HeLa; details: Brd3, 6 h treatment, 1 nM-10 μM; for Dmax: read-out: Dmax (%) maximum degradation observed
# Method: as §1, §2, §3, §4
# [14] = molecular target: T4, Brd2; assay: as above; parameters: endogenous in cells; host or cells: HeLa; details: Brd2, 6 h treatment, 1 nM-10 μM; for Dmax: read-out: Dmax (%) maximum degradation observed
# Method: as §1, §2, §3, §4
# [15] = molecular target: T1, Brd4 (L); assay: Time-dependent BET degradation, immunoblot, HEK293 cells; parameters: dose or concentration left out as unconfirmed; details: timecourse 0-8 h
# Method: as §1, §2
# as §3, with “(3×10^5)” for “(5×10^5)”, “(0.5×10^6)” for “(1×10^6)”, “1 μM concentration,” for “the desired concentration (1 nM-10 μM),”, “incubation for the desired time (0-8 h),” for “6 h treatment time,”, “(20,000 g,” for “(20,000g,”, “(Invitrogen).” for “(Invitrogen.”
# as §4, with “FIG. 4” for “FIG. 3”, “following 1 μM” for “following”, “treatment at various time points” for “treatment”, “with” for “with increasing concentrations of”, “version 8).” for “version 8)”
# as §5
# [16] = molecular target: T2, Brd4 (S); assay: as above; parameters: dose or concentration left out as unconfirmed; details: timecourse 0-8 h
# Method: as §1, §2
# as §3, with “(3×10^5)” for “(5×10^5)”, “(0.5×10^6)” for “(1×10^6)”, “1 μM concentration,” for “the desired concentration (1 nM-10 μM),”, “incubation for the desired time (0-8 h),” for “6 h treatment time,”, “(20,000 g,” for “(20,000g,”, “(Invitrogen).” for “(Invitrogen.”
# as §4, with “FIG. 4” for “FIG. 3”, “following 1 μM” for “following”, “treatment at various time points” for “treatment”, “with” for “with increasing concentrations of”, “version 8).” for “version 8)”
# as §5
DC50 [1] [nM],Dmax [1] [%],DC50 [2] [nM],Dmax [2] [%],Dmax [3] [%],Dmax [4] [%],Dmax at 1 µM [5] [%],Dmax at 1 µM [6] [%],DC50 [7] [nM],Dmax [7] [%],DC50 [8] [nM],Dmax [8] [%],DC50 [9] [nM],Dmax [9] [%],DC50 [10] [nM],Dmax [10] [%],Dmax at 1 µM [11] [%],Dmax at 1 µM [12] [%],Dmax [13] [%],Dmax [14] [%],SMILES,also measured
51 to 500,≥ 71,51 to 500,≥ 71,67,67,100,76,≤ 50,≥ 71,≤ 50,≥ 71,51 to 500,≥ 71,51 to 500,51 to 70,93,50,26 to 50,26 to 50,CCCC(NC(=O)/C(C#N)=C/c1cccc(Br)n1)c1ccc(OCC=NOCC(=O)NCCOCCOCCOCCNC(=O)c2ccc3c(c2)[C@H](Nc2ccc(Cl)cc2)C[C@H](C)N3C(C)=O)cc1 (some centres unmarked) [Example 05IB2],DC50 [13]: 51 to 500 nM; DC50 [14]: 51 to 500 nM; Dmax [15]: 100%; Dmax [16]: 100%
≤ 50,51 to 70,51 to 500,≥ 71,100,100,90,82,≤ 50,≥ 71,≤ 50,≥ 71,51 to 500,≥ 71,51 to 500,51 to 70,100,97,≥ 71,≥ 71,CCCC(NC(=O)/C(C#N)=C/c1nc(Cl)ccc1Cl)c1ccc(OCCOCCOCCOCCOCCOCCOCCNC(=O)c2ccc(-c3ccc4c(c3)[C@H](Nc3ccc(Cl)cc3)C[C@H](C)N4C(C)=O)cc2)cc1 (some centres unmarked) [Example 05IB10],DC50 [13]: 51 to 500 nM; DC50 [14]: ≤ 50 nM; Dmax [15]: 100%; Dmax [16]: 99%
–,≤ 25,–,≤ 25,–,–,–,–,–,≤ 25,–,26 to 50,–,≤ 25,–,≤ 25,–,–,26 to 50,≤ 25,CCCC(NC(=O)C(C#N)Cc1cccc(Br)n1)c1ccc(OCCOCCOCCOCCOCCOCCOCCNC(=O)c2ccc(-c3ccc4c(c3)[C@H](Nc3ccc(Cl)cc3)C[C@H](C)N4C(C)=O)cc2)cc1 (some centres unmarked) [Example 05IB12],–
